Measured values from patent publication US20240254138A1, “TRICYCLIC PYRIMIDINES AS CYCLIN-DEPENDENT KINASE 7 (CDK7) INHIBITORS” (JANSSEN PHARMACEUTICA NV, priority 2021, published 2024).
Where two headings read alike, the source gives them in different places.

Assays:
[1] = test system: RNA Polymerase II Serine 5 phosphorylation in A549 cells overexpressing CDK7-mutant (C312S); experiment: Imaging-based cellular RNA PolII Ser5 phosphorylation assay in A549 cells overexpressing CDK7-mutant (C312S); format: cell-based, human; details: RNA PolII Ser5 phosphorylation, averaged over all measurements; for IC50: Homo sapiens, A549, A549 cells overexpressing CDK7-mutant (C312S), read-out: CDK7_A549 mutant hCDK7(pIC50) (converted); for CDK7_A549 mutant hCDK7(pIC50): A549 cells overexpressing CDK7-mutant (C312S)
In short: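 Readout was automated imaging of anti-phospho-Ser5 Rpb1 CTD immunofluorescence, with IC50 fitted to % control versus concentration. Cells were A549 stably overexpressing non-covalently targetable CDK7 C312S alongside wild-type, exposed to compound 3 h at 37 °C. DMSO and 10 μM reference compound served as controls.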

[2] = molecular target: CDK7/cyclinH/MAT1 trimeric complex (Homo sapiens, UniProt P50613); experiment: In vitro CDK7 assay, potency of irreversible covalent inhibitors (kinact/KI), coupled PK/LDH ADP readout at 340 nm
Chain of CDK7/cyclinH/MAT1 trimeric complex (P50613 whole entry): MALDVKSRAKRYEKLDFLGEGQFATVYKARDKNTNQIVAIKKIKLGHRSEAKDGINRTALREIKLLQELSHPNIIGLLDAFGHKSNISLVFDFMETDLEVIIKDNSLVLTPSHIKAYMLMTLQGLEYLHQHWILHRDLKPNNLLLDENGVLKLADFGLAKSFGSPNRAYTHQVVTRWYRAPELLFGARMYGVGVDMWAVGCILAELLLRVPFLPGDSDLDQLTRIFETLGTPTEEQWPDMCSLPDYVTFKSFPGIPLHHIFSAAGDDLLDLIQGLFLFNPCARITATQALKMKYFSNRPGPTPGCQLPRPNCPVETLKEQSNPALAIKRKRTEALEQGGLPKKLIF
Chain of CDK7/cyclinH/MAT1 trimeric complex (P51946 whole entry partner): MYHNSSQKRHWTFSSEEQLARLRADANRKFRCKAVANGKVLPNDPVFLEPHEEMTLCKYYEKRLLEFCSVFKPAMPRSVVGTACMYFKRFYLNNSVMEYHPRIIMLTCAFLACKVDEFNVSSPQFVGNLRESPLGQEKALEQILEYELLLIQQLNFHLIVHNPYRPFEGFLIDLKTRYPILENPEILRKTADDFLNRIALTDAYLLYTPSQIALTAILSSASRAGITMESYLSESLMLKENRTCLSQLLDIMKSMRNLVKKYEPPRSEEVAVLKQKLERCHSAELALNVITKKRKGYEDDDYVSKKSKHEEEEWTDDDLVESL
Chain of CDK7/cyclinH/MAT1 trimeric complex (P51948 whole entry partner): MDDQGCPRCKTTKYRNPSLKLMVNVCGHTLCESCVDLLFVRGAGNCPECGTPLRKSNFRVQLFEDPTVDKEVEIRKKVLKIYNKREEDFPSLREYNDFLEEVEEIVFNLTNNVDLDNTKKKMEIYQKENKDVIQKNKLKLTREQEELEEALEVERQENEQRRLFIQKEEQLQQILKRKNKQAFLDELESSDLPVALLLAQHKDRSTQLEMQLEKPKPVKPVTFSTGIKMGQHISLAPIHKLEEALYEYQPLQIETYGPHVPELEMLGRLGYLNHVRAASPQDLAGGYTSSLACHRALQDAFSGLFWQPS

[3] = test system: RNA Polymerase II Serine 5 phosphorylation (Rpb1 CTD, downstream substrate of CDK7) in A549 cells; experiment: Imaging-based cellular RNA PolII Ser5 phosphorylation assay in A549 cells; format: cell-based, human; details: wild-type CDK7, RNA PolII Ser5 phosphorylation, averaged over all measurements; for IC50: Homo sapiens, A549, A549 cells, read-out: CDK7_A549 Wild-type CDK7 (pIC50) (converted); for CDK7_A549 Wild-type CDK7 (pIC50): A549 cells
In short: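 IC50 derived by fitting % control (DMSO high, 10 μM reference low) against concentration, with Hill slope. Readout: high-content imaging of phospho-Ser5 Rpb1 CTD antibody staining in fixed, permeabilized A549 cells exposed to compound 3 h after 20 h culture in 1% FBS DMEM.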

[4] = CDK7 (20 nM enz.) (KI, μM), 20 nM enzyme
[5] = read-out: CDK7 (20 nM enz.) (kinact, s^−1), 20 nM enzyme
[6] = read-out: CDK7 (20 nM enz.) (kinact/KI, M^−1*s^−1), 20 nM enzyme
[7] = CDK7 (KI(μM)), […], 1 mM ATP, room temperature, averaged values over all measurements
[8] = read-out: CDK7 (kinact, s^−1), kinact = maximal rate of inactivation, 1 mM ATP, room temperature, averaged values over all measurements
[9] = read-out: CDK7 (kinact/KI, M^−1*s^−1), potency of irreversible covalent inhibitors, 1 mM ATP, room temperature, averaged values over all measurements

SMILES	IC50 [1]	Ki [2, 4]	kinact [2, 5]	kinact/KI [2, 6]	IC50 [3]	further results
C=CC(=O)N1CC[C@H](N2CC(c3cc4c(c(C)n3)OCc3c(C5CCOCC5)ccnc3N4)C2)[C@H](F)C1 (mixture of isomers) [Compound 236]	7410 nM	0.084 µM	3.05e-05 s⁻¹	362 M⁻¹ s⁻¹	162 nM	
CC#CC(=O)N1CC(N2CC(c3cc4c(c(C)n3)O[C@H](C)c3c(N5CCOCC5)ccnc3N4)C2)C1 (single isomer, unassigned) [Compound 355]	> 10000 nM	0.211 µM	3.51e-05 s⁻¹	166 M⁻¹ s⁻¹	195 nM	
C=CC(=O)N1CC(N2CCC(c3ccc4c(c3)Nc3nccc(C5CCOCC5)c3CO4)CC2)C1 [Compound 123]		0.0244 µM	3.4e-05 s⁻¹	1390 M⁻¹ s⁻¹		CDK7_A549 mutant hCDK7(pIC50) [1]: <5; CDK7_A549 Wild-type CDK7 (pIC50) [3]: 7.15
CC#CC(=O)N1CC[C@H](N2CCC(c3cc4c(c(C)n3)OCc3c(N5CCOCC5)ccnc3N4)CC2)C1 (single isomer, unassigned) [Compound 309]	> 10000 nM	0.277 µM	5.45e-05 s⁻¹	197 M⁻¹ s⁻¹	129 nM	
C=CC(=O)N1CC(N2CCC(c3cc(F)c4c(c3)Nc3nccc(-c5cnn(C)c5)c3CO4)CC2)C1 [Compound 126]	> 10000 nM				47.9 nM	CDK7 (20 nM enz.) (kobs/[I], M^−1*s^−1) ([2]; 20 nM enzyme): 875.576 M⁻¹ s⁻¹
C=CC(=O)Nc1ccc(-c2ccc3c(c2)Nc2nccc(N4CCOCC4)c2CO3)cn1 [Compound 26]						CDK7_A549 mutant hCDK7(pIC50) [1]: ~5.1; CDK7 (20 nM enz.) (kobs/[I], M^−1*s^−1) ([2]; 20 nM enzyme): 1343.33 M⁻¹ s⁻¹; Ki [2, 7]: 0.063 µM; kinact [2, 8]: 0.000102 s⁻¹; kinact/KI [2, 9]: 1620 M⁻¹ s⁻¹; CDK7_A549 Wild-type CDK7 (pIC50) [3]: 7.65
C=CC(=O)N1CC[C@@H](N2CC(c3cc(C#N)c4c(c3)Nc3nccc(N5CCOCC5)c3[C@@H](C)O4)C2)C1 (single isomer, unassigned) [Compound 462]	5250 nM			509 M⁻¹ s⁻¹	50.1 nM	
C=CC(=O)N1CCC(N2CC(c3cc4c(c(C)n3)OCc3c(N5CCOCC5)ccnc3N4)C2)CC1 [Compound 303]	6170 nM	0.0492 µM	2.35e-05 s⁻¹	477 M⁻¹ s⁻¹	91.2 nM	
CC#CC(=O)N1CCC(N2CC(c3cc4c(c(C#N)n3)O[C@H](C)c3c(C5CCOCC5)ccnc3N4)C2)CC1 (single isomer, unassigned) [Compound 517]	> 10000 nM	2.91 µM	4.23e-05 s⁻¹	14.3 M⁻¹ s⁻¹	3020 nM	
C=CC(=O)N1CC[C@@H](N2CC(c3cc(C)c4c(c3)Nc3nccc(C5CCOCC5)c3CO4)C2)[C@H](F)C1 (racemic) [Compound 206]	> 10000 nM	0.0443 µM	4.45e-05 s⁻¹	1000 M⁻¹ s⁻¹	93.3 nM	
CC#CC(=O)N1CC(N2CC(c3cc4c(c(C5CC5)n3)OCc3c(N5CCOCC5)ccnc3N4)C2)C1 [Compound 318]	> 10000 nM	0.0441 µM	6.19e-05 s⁻¹	1400 M⁻¹ s⁻¹	324 nM	
C=CC(=O)N1CCC(C#Cc2ccc3c(c2)Nc2nccc(C4CCOCC4)c2CO3)CC1 [Compound 30]	> 10000 nM				~7590 nM	Ki [2, 7]: 0.316 µM; kinact [2, 8]: 6.56e-05 s⁻¹; kinact/KI [2, 9]: 208 M⁻¹ s⁻¹
CC#CC(=O)N1CCC(N2CCC(c3cc4c(c(C)n3)OCc3c(N5CCOCC5)ccnc3N4)CC2=O)CC1 (centres unmarked) [Compound 484]	> 10000 nM			289 M⁻¹ s⁻¹	141 nM	
CC#CC(=O)N1CC(N2CC(c3cc4c(c(C)n3)O[C@H](C)c3c(N5CCOCC5)ccnc3N4)C2)C1 (single isomer, unassigned) [Compound 440]		0.205 µM				CDK7_A549 mutant hCDK7(pIC50) [1]: <5; CDK7 (20 nM enz.) (kinact, s^−1) ([2]; 20 nM enzyme): 0.000050424 s⁻¹; CDK7 (20 nM enz.) (kinact/KI, M^−1*s^−1) ([2]; 20 nM enzyme): 246.333 M⁻¹ s⁻¹; CDK7_A549 Wild-type CDK7 (pIC50) [3]: 6.79
C=CC(=O)N1CC[C@H](N2CC(c3cc4c(c(C)n3)OCc3c(N5CCOCC5)ccnc3N4)C2)[C@H](F)C1 [Compound 225]	> 10000 nM	0.337 µM	6.24e-05 s⁻¹	185 M⁻¹ s⁻¹	126 nM	
C=CC(=O)N1CC(N2CC[C@@H](c3cc4c(c(C)n3)O[C@@H](C)c3c(N5CCOCC5)ccnc3N4)C2)C1 (single isomer, unassigned) [Compound 243]	> 10000 nM	0.0802 µM	3.93e-05 s⁻¹	490 M⁻¹ s⁻¹	126 nM	
CC#CC(=O)N1CCC(N2CC(c3cc4c(c(C)n3)OCc3c(N5CCOCC5)ccnc3N4)C2)CC1 [Compound 313]	5370 nM	0.0471 µM	2.02e-05 s⁻¹	427 M⁻¹ s⁻¹	77.6 nM	
C=CC(=O)N1CC(N2CCC(c3ccc4c(c3)Nc3nccc(N5CCC6(CCO6)CC5)c3CO4)CC2)C1 [Compound 46]	> 10000 nM				631 nM	Ki [2, 7]: 0.223 µM; kinact [2, 8]: 0.000102 s⁻¹; kinact/KI [2, 9]: 456 M⁻¹ s⁻¹
CC#CC(=O)N1CC[C@H](N2CC(c3cc4c(c(C5CC5)n3)O[C@@H](C)c3c(N5CCOCC5)ccnc3N4)C2)C1 (single isomer, unassigned) [Compound 470]	> 10000 nM	0.0394 µM	3e-05 s⁻¹	761 M⁻¹ s⁻¹	251 nM	
C=CC(=O)N1CCC(N2CC(c3cc4c(c(C#N)n3)O[C@@H](C)c3c(N5CCOCC5)ccnc3N4)C2)CC1 (single isomer, unassigned) [Compound 491]	> 10000 nM	0.403 µM	2.48e-05 s⁻¹	61.4 M⁻¹ s⁻¹	479 nM	
C=CC(=O)N1CC[C@H](N2CC(c3cc(C)c4c(c3)Nc3nccc(C5CCOCC5)c3CO4)C2)[C@H](F)C1 (mixture of isomers) [Compound 200]	~10000 nM	0.0506 µM	4.11e-05 s⁻¹	812 M⁻¹ s⁻¹	93.3 nM	
C=CC(=O)N1CC[C@@H](N2CC(c3cc4c(c(C(F)(F)F)c3)OCc3c(N5CCOCC5)ccnc3N4)C2)C1 (single isomer, unassigned) [Compound 240]	5130 nM	0.0242 µM	3.61e-05 s⁻¹	1490 M⁻¹ s⁻¹	55 nM	
CC#CC(=O)N1CC(N2CC[C@@H](c3cc4c(c(C)n3)O[C@@H](C)c3c(N5CCOCC5)ccnc3N4)C2)C1 (single isomer, unassigned) [Compound 328]	> 10000 nM	0.472 µM	2.77e-05 s⁻¹	58.8 M⁻¹ s⁻¹	224 nM	
C=CC(=O)N1CC(c2ncc(-c3cc(C)c4c(c3)Nc3nccc(C5CCOCC5)c3CO4)cn2)C1 [Compound 114]	> 10000 nM	0.0779 µM	4.23e-05 s⁻¹	543 M⁻¹ s⁻¹	50.1 nM	
C=CC(=O)N1CC(N2CCC(c3cc4c(c(C)n3)OCc3c(-c5cnn(C)c5)ccnc3N4)CC2)C1 [Compound 314]		0.0655 µM				CDK7_A549 mutant hCDK7(pIC50) [1]: <5; CDK7 (20 nM enz.) (kinact, s^−1) ([2]; 20 nM enzyme): 3.945e-05 s⁻¹; CDK7 (20 nM enz.) (kinact/KI, M^−1*s^−1) ([2]; 20 nM enzyme): 602.565 M⁻¹ s⁻¹; CDK7_A549 Wild-type CDK7 (pIC50) [3]: 7.14
C=CC(=O)Nc1ccc(-c2ccc3c(c2)Nc2nccc(N4CCOCC4)c2CO3)cn1 [Compound 178]	6760 nM				22.4 nM	kinact/KI ([2]; read-out: CDK7 (20 nM enz.) (kobs/[I], M^−1*s^−1), 20 nM enzyme): 1910 M⁻¹ s⁻¹
C=CC(=O)N1CCC(c2nc(C)c(-c3cc(C)c4c(c3)Nc3nccc(C5CCOCC5)c3CO4)c(C)n2)CC1 [Compound 116]	> 10000 nM	0.293 µM	5.05e-05 s⁻¹	173 M⁻¹ s⁻¹	398 nM	
